Reference: US20250332160A1, “COMPOSITION CONTAINING ARIPIPRAZOLE AS ACTIVE INGREDIENT FOR ENHANCING ANTICANCER EFFECT OF ERK INHIBITOR” (KOREA INSTITUTE OF RADIOLOGICAL & MEDICAL SCIENCES, priority 2022, published 2025)

Tests used:
[1] = tested on: NOXA; experiment: Expression of NOXA protein in COLO 205 cells, Western blot; assay type: cell-based; settings: eight hours after treatment, Western blot (FIG. 1)
Description: (§1) To identify an effect of aripiprazole on the expression of NOXA and PUMA proteins in cancer cells, COLO 205 cells were treated with aripiprazole. Eight hours later, proteins were extracted from cells after washing with PBS, and a level of NOXA and PUMA expression was checked via Western blot.

[2] = tested on: PUMA; experiment: Expression of PUMA protein in COLO 205 cells, Western blot; assay type: cell-based; settings: eight hours after treatment, Western blot (FIG. 1)
Description: as §1

O=C1CCc2ccc(OCCCCN3CCN(c4cccc(Cl)c4Cl)CC3)cc2N1 [aripiprazole] was tested, and the “expression of NOXA protein” value [1] was “increased” and the “expression of PUMA protein” value [2] was “increased”.
